Source: EP1247803A2, “Indolinone compounds suitable for modulation of protein kinases” (Sugen, Inc., priority 1996, dated 1998)

biological target: T1, EGFR (Homo sapiens, UniProt P00533); test: EGFR ELISA assay (in vitro kinase activity, EGFR captured from A431 cell lysate); type: biochemical; set-up: concentration or dose not given beside the values
T1 construct: Add 7 ug A431 cell lysate per well (EGFR source); endogenous in cells; host or cells: A431
Summary of the method: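 Receptor autophosphorylation was read by ELISA: anti-phosphotyrosine serum and an HRP-linked secondary with ABTS substrate, absorbance at 410 nm (reference 630 nm). The reaction ran 5 min with 3 µM ATP and 5 mM MnCl2 and was quenched by 20 mM EDTA. Compounds were first incubated 30 min with antibody-captured EGFR from A431 cell lysate.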

T1 sequence (P00533 25-1210): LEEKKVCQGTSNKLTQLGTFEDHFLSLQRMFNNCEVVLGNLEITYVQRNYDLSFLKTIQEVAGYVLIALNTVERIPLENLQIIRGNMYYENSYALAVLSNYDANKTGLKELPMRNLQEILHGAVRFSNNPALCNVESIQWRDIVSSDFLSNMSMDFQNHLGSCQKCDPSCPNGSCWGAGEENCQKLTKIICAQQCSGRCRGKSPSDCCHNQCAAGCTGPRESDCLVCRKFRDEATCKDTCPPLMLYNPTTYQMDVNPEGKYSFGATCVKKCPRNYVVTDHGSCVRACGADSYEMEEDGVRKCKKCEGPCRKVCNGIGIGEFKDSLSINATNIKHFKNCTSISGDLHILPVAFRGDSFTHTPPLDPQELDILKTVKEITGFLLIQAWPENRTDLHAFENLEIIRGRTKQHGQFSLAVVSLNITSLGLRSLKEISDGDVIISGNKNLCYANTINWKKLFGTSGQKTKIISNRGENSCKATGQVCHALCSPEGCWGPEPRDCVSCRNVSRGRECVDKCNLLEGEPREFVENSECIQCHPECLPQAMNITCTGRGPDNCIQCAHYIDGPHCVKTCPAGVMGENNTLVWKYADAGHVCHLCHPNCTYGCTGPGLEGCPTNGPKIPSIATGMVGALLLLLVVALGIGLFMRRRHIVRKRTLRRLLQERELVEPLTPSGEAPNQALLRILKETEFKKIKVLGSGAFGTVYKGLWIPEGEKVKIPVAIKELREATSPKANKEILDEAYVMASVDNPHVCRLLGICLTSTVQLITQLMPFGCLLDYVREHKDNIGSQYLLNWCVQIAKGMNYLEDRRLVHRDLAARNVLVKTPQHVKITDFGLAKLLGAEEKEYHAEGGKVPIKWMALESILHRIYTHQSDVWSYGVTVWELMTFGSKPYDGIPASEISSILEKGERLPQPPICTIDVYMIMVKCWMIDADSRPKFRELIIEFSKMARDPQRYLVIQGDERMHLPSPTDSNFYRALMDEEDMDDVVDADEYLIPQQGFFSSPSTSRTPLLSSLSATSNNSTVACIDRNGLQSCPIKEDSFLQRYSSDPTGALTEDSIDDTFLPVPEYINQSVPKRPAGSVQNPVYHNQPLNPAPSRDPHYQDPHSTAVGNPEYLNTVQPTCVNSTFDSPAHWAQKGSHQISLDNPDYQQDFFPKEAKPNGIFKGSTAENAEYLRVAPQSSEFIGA

SMILES | Biochem EGFR %Inhibition
O=C1Nc2ccc(S(=O)(=O)Nc3ccc(C(F)(F)F)cc3)cc2C1=Cc1coc2ccc(Cl)cc2c1=O [10730/E06] | 1.5%
CC(=O)n1cc(C=C2C(=O)Nc3ccc(S(=O)(=O)N4CCOCC4)cc32)c2ccccc21 [10730/F05] | -16.3%
O=C1Nc2ccc(S(=O)(=O)Nc3ccc(C(F)(F)F)cc3)cc2C1=Cc1coc2c(Br)cc(Br)cc2c1=O [10730/E09] | 21.7%
O=C1Nc2ccc(CCCl)cc2C1=Cc1cccc(Oc2ccccc2)c1 [10729/G06] | 15.2%
COc1cc(C=C2C(=O)Nc3ccc(Br)c(C)c32)cc(OC)c1OC [10730/C04] | 0.1%
O=C1Nc2c(Br)cc(Br)cc2C1=Cc1coc2ccc(Cl)cc2c1=O [10730/A06] | 6.7%
Cc1c(Br)ccc2c1C(=Cc1coc3ccc(Cl)cc3c1=O)C(=O)N2 [10730/C06] | 8.5%
CNS(=O)(=O)c1ccc2c(c1)C(=Cc1cn(C(C)=O)c3ccccc13)C(=O)N2 [10730/D05] | 12.6%
CNS(=O)(=O)c1ccc2c(c1)C(=Cc1coc3ccc(Cl)cc3c1=O)C(=O)N2 [10730/D06] | 35.3%
